Species: Rattus norvegicus
Assay: Open TG-GATES - Regimen: Single
Format: toxicity, organism-based, Sprague-Dawley
Set-up: regimen Single, gender Male, age 6 weeks
Details: in vivo, po, 300 mg/kg, route gavage, dose level High; for APTT / Bas / Eos / Fbg / Hb / Ht / Lym / MCH / MCHC / MCV / Mono / Neu / PT / Plat / RBC / Ret / WBC: tissue Blood; for KIDNEY_L / KIDNEY_R / KIDNEY_TOTAL: tissue Kidney; for LIVER: tissue Liver; for A/G / ALP / ALT / AST / BUN / CRE / Ca / Cl / DBIL / GLC / IP / K / LDH / Na / PL / RALB / TBIL / TC / TG / TP / gamma-GTP: tissue Plasma

SMILES: Cc1cccc(Nc2ccccc2C(=O)O)c1C [MEFENAMIC ACID]
- TERMINAL_BW (3 h): 215.2 g
- APTT (3 h): 18.8 s
- Bas (3 h): 0%
- Eos (3 h): 1.2%
- Fbg (3 h): 229.4 mg/dL
- Hb (3 h): 12.9 g/dL
- Ht (3 h): 36.2%
- Lym (3 h): 73.6%
- MCH (3 h): 21.8 pg
- MCHC (3 h): 35.6%
- MCV (3 h): 61.3 fL
- Mono (3 h): 2.8%
- Neu (3 h): 20.2%
- PT (3 h): 12.4 s
- Plat (3 h): 115.5 x10_4/uL
- RBC (3 h): 591.2 x10_4/ul
- Ret (3 h): 7.5%
- WBC (3 h): 95.9 x10_2/uL
- KIDNEY_L (3 h): 1 g
- KIDNEY_R (3 h): 1 g
- KIDNEY_TOTAL (3 h): 2 g
- LIVER (3 h): 9.5 g
- A/G (3 h): 1.5
- ALP (3 h): 832.8 IU/L
- ALT (3 h): 35.8 IU/L
- AST (3 h): 66.4 IU/L
- BUN (3 h): 11.6 mg/dL
- CRE (3 h): 0.4 mg/dL
- Ca (3 h): 10.7 mg/dL
- Cl (3 h): 102.6 meq/L
- DBIL (3 h): 0.072 mg/dL
- GLC (3 h): 181.2 mg/dL
- IP (3 h): 8.6 mg/dL
- K (3 h): 4.3 meq/L
- LDH (3 h): 184 IU/L
- Na (3 h): 139.6 meq/L
- PL (3 h): 134.2 mg/dL
- RALB (3 h): 3.2 g/dL
- TBIL (3 h): 0.1 mg/dL
- TC (3 h): 73.2 mg/dL
- TG (3 h): 38.4 mg/dL
- TP (3 h): 5.4 g/dL
- gamma-GTP (3 h): 1.4 IU/L
- TERMINAL_BW (6 h): 215.5 g
- APTT (6 h): 18.9 s
- Bas (6 h): 0%
- Eos (6 h): 1%
- Fbg (6 h): 220 mg/dL
- Hb (6 h): 13.2 g/dL
- Ht (6 h): 36.8%
- Lym (6 h): 73.2%
- MCH (6 h): 21.5 pg
- MCHC (6 h): 35.8%
- MCV (6 h): 60.2 fL
- Mono (6 h): 3%
- Neu (6 h): 19.6%
- PT (6 h): 12.7 s
- Plat (6 h): 114.8 x10_4/uL
- RBC (6 h): 612.4 x10_4/ul
- Ret (6 h): 7.5%
- WBC (6 h): 106.7 x10_2/uL
- KIDNEY_L (6 h): 1 g
- KIDNEY_R (6 h): 1 g
- KIDNEY_TOTAL (6 h): 2 g
- LIVER (6 h): 8.8 g
- A/G (6 h): 1.6
- ALP (6 h): 1032.8 IU/L
- ALT (6 h): 31.2 IU/L
- AST (6 h): 60.8 IU/L
- BUN (6 h): 13 mg/dL
- CRE (6 h): 0.3 mg/dL
- Ca (6 h): 10.4 mg/dL
- Cl (6 h): 104.2 meq/L
- DBIL (6 h): 0.06 mg/dL
- GLC (6 h): 194.6 mg/dL
- IP (6 h): 9.1 mg/dL
- K (6 h): 4.1 meq/L
- LDH (6 h): 175 IU/L
- Na (6 h): 140.2 meq/L
- PL (6 h): 133.4 mg/dL
- RALB (6 h): 3.3 g/dL
- TBIL (6 h): 0.1 mg/dL
- TC (6 h): 75.4 mg/dL
- TG (6 h): 39 mg/dL
- TP (6 h): 5.4 g/dL
- gamma-GTP (6 h): 1 IU/L
- TERMINAL_BW (9 h): 211.4 g
- APTT (9 h): 17.9 s
- Bas (9 h): 0%
- Eos (9 h): 1%
- Fbg (9 h): 221 mg/dL
- Hb (9 h): 13.1 g/dL
- Ht (9 h): 36.7%
- Lym (9 h): 70.4%
- MCH (9 h): 21.7 pg
- MCHC (9 h): 35.7%
- MCV (9 h): 60.7 fL
- Mono (9 h): 2.6%
- Neu (9 h): 22.8%
- PT (9 h): 13.1 s
- Plat (9 h): 112.4 x10_4/uL
- RBC (9 h): 604.8 x10_4/ul
- Ret (9 h): 7.5%
- WBC (9 h): 77.5 x10_2/uL
- KIDNEY_L (9 h): 1 g
- KIDNEY_R (9 h): 1 g
- KIDNEY_TOTAL (9 h): 2 g
- LIVER (9 h): 8.1 g
- A/G (9 h): 1.6
- ALP (9 h): 800.8 IU/L
- ALT (9 h): 29.8 IU/L
- AST (9 h): 58.8 IU/L
- BUN (9 h): 14.2 mg/dL
- CRE (9 h): 0.4 mg/dL
- Ca (9 h): 10.5 mg/dL
- Cl (9 h): 104.8 meq/L
- DBIL (9 h): 0.068 mg/dL
- GLC (9 h): 187.4 mg/dL
- IP (9 h): 9.4 mg/dL
- K (9 h): 4.2 meq/L
- LDH (9 h): 173.6 IU/L
- Na (9 h): 140.8 meq/L
- PL (9 h): 119 mg/dL
- RALB (9 h): 3.4 g/dL
- TBIL (9 h): 0.1 mg/dL
- TC (9 h): 65 mg/dL
- TG (9 h): 35.6 mg/dL
- TP (9 h): 5.5 g/dL
- gamma-GTP (9 h): 1 IU/L
- TERMINAL_BW (24 h): 225 g
- APTT (24 h): 18.3 s
- Bas (24 h): 0%
- Eos (24 h): 0.8%
- Fbg (24 h): 289.8 mg/dL
- Hb (24 h): 12.9 g/dL
- Ht (24 h): 36.8%
- Lym (24 h): 60.4%
- MCH (24 h): 22 pg
- MCHC (24 h): 35.1%
- MCV (24 h): 62.8 fL
- Mono (24 h): 3%
- Neu (24 h): 31.4%
- PT (24 h): 11.8 s
- Plat (24 h): 115.4 x10_4/uL
- RBC (24 h): 585.4 x10_4/ul
- Ret (24 h): 7%
- WBC (24 h): 131.5 x10_2/uL
- KIDNEY_L (24 h): 1 g
- KIDNEY_R (24 h): 1 g
- KIDNEY_TOTAL (24 h): 2.1 g
- LIVER (24 h): 10.5 g
- A/G (24 h): 1.5
- ALP (24 h): 850.8 IU/L
- ALT (24 h): 36 IU/L
- AST (24 h): 61.4 IU/L
- BUN (24 h): 14.2 mg/dL
- CRE (24 h): 0.4 mg/dL
- Ca (24 h): 10.4 mg/dL
- Cl (24 h): 103.6 meq/L
- DBIL (24 h): 0.08 mg/dL
- GLC (24 h): 185.2 mg/dL
- IP (24 h): 7.8 mg/dL
- K (24 h): 3.8 meq/L
- LDH (24 h): 187.2 IU/L
- Na (24 h): 141.4 meq/L
- PL (24 h): 133.4 mg/dL
- RALB (24 h): 3 g/dL
- TBIL (24 h): 0.1 mg/dL
- TC (24 h): 67 mg/dL
- TG (24 h): 100.2 mg/dL
- TP (24 h): 5 g/dL
- gamma-GTP (24 h): 2 IU/L
